Laboratory results from patent US20260327234A1, “NOVEL COMPOUNDS AS CYP11A1 INHIBITORS AND METHODS OF USE THEREOF” (Shenzhen Ionova Life Science Co., Ltd., priority 2023, published 2026).

Tests used:
[1] = target: T1, testosterone (T) production in NCI-H295R cells (Homo sapiens, UniProt P05108); assay: H295R Steroid Biosynthesis Inhibition Assay - inhibition of testosterone (T) production in NCI-H295R cells; type: cell-based; conditions: 48 h, LC-MS/MS, read-out: Inh. of T IC50
T1 construct: testosterone measured by LC-MS/MS as downstream steroid
T1 sequence (P05108 40-521): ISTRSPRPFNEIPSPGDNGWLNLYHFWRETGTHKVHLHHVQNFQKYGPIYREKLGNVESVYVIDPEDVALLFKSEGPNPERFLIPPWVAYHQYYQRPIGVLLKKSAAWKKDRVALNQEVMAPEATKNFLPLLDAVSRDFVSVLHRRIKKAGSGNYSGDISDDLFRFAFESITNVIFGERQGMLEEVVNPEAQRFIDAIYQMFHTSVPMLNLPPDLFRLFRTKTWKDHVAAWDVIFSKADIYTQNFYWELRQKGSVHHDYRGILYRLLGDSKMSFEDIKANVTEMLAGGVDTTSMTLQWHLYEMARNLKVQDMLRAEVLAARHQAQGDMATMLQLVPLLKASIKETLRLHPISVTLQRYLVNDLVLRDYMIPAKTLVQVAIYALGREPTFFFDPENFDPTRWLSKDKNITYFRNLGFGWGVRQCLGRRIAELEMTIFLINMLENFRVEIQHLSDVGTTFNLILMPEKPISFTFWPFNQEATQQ
Protocol: (§1) Steroid Biosynthesis Inhibition by test compounds in NCI-H295R cells (ATCC) was studied by measuring the cellular production of pregnenolone (P) catalyzed by CYP11A1 and the downstream steroid, testosterone (T). Cells were cultured in Dulbecco's modified eagle's medium F12 (DMEM/F12) with phenol red (Gibco, Cat. No. 11330032) supplemented with 2% UltroserG (Pall, Cat. No. 15950-017, USA), 1% ITS-Premix and 1% penicillin and streptomycin (Hyclone, Cat. No. SV30010, USA). Prior to the assay, cells were thawed and passed 4 times. The maximal passage number used for the assay was 10. For this assay, DMEM/F12 without phenol red supplemented with 10% charcoal-stripped fetal bovine serum (VivaCell, Cat. No. C3830-0500, USA) were used. In a 96-well plate, 60,000 cells/well were plated (90 μL/well) and incubated for 24 h. Test compounds, diluted in a serial dilution ranging from 1000 nM to 0.15 nM in the assay medium, were added to the plate. After 48 h of incubation, solution from each well were collected and transferred to individual 1.5 mL centrifuge tubes, and then 5 ng/mL deuterated testosterone (D3-testosterone) and 50 ng/mL deuterated pregnenolone (D4-pregnenolone) in 200 μL acetonitrile were added. After vigorously mixing for 5 min, the mixture was centrifuged at 12,700 rpm for 15 min. An aliquot of 250 μL supernatant was collected and dried under N2 stream. After addition of 150 μL Methanol:water (1:1, v/v) to the dried product, 50 μL sample of this solution was injected into the LC-MS/MS system for analysis.
(§2) The half-maximal inhibitory concentration (IC50) for steroid biosynthesis inhibition was determined by curve-fitting with the 4-variable inhibitory dose response equation using GraphPad Prism software.
(§3) Testosterone and pregnenolone were analyzed using Shimadzu LC30AD HPLC system (Shimadzu, Kyoto, Japan) coupled with AB SCIEX Qtrap 5500 triple quadrupole mass spectrometer (AB Sciex, Framingham, MA, USA) via ESI interface in the positive ionization mode. An ACQUITY UPLC BEH Shield RP18 column (1.7 μm, 2.1×50 mm, Milford, MA, USA) maintained at 40° C. was used to separate analytes and IS form the sample matrix.
(§4) The mobile phase was a mixture of 10 mM ammonium acetate in water containing 0.2% formic acid (A) and methanol containing 0.2% formic acid (B) at a flow rate of 0.6 mL/min. The gradient program was set as follows: from 0 min to 0.5 min, 60% B; from 0.5 min to 3.5 min, 90% B; from 3.5 min to 4.5 min, 90% B; from 4.51 min to 5.0 min, 60% B. The injection volume was […].
(§5) The MS/MS parameters were set as follows: ion spray voltage, 5500 V; curtain gas, 35 psi; Gas 1, 55 psi; Gas 2: 55 psi; temperature, […]. The optimized multiple reaction monitoring (MRM) fragmentation transitions and MS parameters of each analyte are summarized in Table 1.

CYP11A1 = target: T2, CYP11A1 (Homo sapiens, UniProt P05108); assay: H295R Steroid Biosynthesis Inhibition Assay - inhibition of pregnenolone (P) production catalyzed by CYP11A1 in NCI-H295R cells; type: cell-based; conditions: 48 h, LC-MS/MS, read-out: Inh. of P IC50
T2 construct: measuring the cellular production of pregnenolone (P) catalyzed by CYP11A1; host or cells: NCI-H295R
T2 sequence (P05108 40-521): T1 sequence (P05108 40-521)
Protocol: as §1, §2, §3, §4, §5

IC50 [1]	IC50 (CYP11A1)	Structure (SMILES)
≤ 40 nM	≤ 40 nM	COc1ccc2c(c1)CN(Cc1cc(=O)c3oc(C4CCN(S(C)(=O)=O)CC4)cc3o1)C2 [Compound 19]
41 to 100 nM	40 to 100 nM	O=c1cc(CN2Cc3ccccc3C2)oc2cc([C@H]3CC4CCC(C3)[C@H]4O)oc12 [Compound 33]
≤ 40 nM	≤ 40 nM	CS(=O)(=O)N1CCC(c2ccc3cc(CN4Cc5ccccc5C4)ncc3c2)CC1 [Compound 68]
41 to 100 nM	≤ 40 nM	O=c1cc(CN2CCn3cccc3C2)oc2cc([C@H]3CC[C@H](O)CC3)oc12 [Compound 54]
41 to 100 nM	≤ 40 nM	N#C[C@H]1CC[C@H](c2cc3oc(CN4Cc5ccccc5C4)cc(=O)c3o2)CC1 [Compound 48]
≤ 40 nM	≤ 40 nM	CS(=O)(=O)N1CCC(c2cc3cc(CN4Cc5ccccc5C4)ccc3o2)CC1 [Compound 126]
41 to 100 nM	40 to 100 nM	O=C(c1nccs1)N1CCC(c2cnc3cc(CN4Cc5ccccc5C4)ccc3n2)CC1 [Compound 109]
≤ 40 nM	≤ 40 nM	COC(=O)N1CCC(c2cc3oc(CN4Cc5ccccc5C4)cc(=O)c3o2)CC1 [Compound 15]
41 to 100 nM	≤ 40 nM	CS(=O)(=O)N1CCC(COc2coc(CN3CCn4c(Cl)ccc4C3)cc2=O)CC1 [Compound 4]
≥ 101 nM	≤ 40 nM	C[C@]1(O)CC[C@@H](c2cc3oc(CN4Cc5ccccc5C4)cc(=O)c3o2)CC1 [Compound 28]
≤ 40 nM	≤ 40 nM	CS(=O)(=O)N1C[C@@H]2[C@H](C1)[C@H]2c1cc2oc(CN3Cc4ccccc4C3)cc(=O)c2o1 [Compound 13, 5-(isoindolin-2-ylmethyl)-2-((1R,5S,6r)-3-(methylsulfonyl)-3-azabicyclo[3.1.0]hexan-6-yl)-7H-furo[3,2-b]pyran-7-one]
≥ 101 nM	≥ 100 nM	Cc1nc(C2CCN(S(C)(=O)=O)CC2)nc2ccc(CN3CCn4cccc4C3)cc12 [Compound 84]
≤ 40 nM	≤ 40 nM	Cn1c(C2CCN(S(C)(=O)=O)CC2)nc2ccc(CN3Cc4ccccc4C3)cc2c1=O [Compound 63]
≥ 101 nM	≥ 100 nM	CS(=O)(=O)N1CCC(c2cc(=O)c3nc(CN4Cc5ccccc5C4)ccc3o2)CC1 [Compound 61]
≤ 40 nM	≤ 40 nM	CNS(=O)(=O)c1ccc(-c2cc3oc(CN4Cc5ccccc5C4)cc(=O)c3o2)cc1 [Compound 51]
≤ 40 nM	≤ 40 nM	CS(=O)(=O)N[C@H]1CC[C@H](c2cc3oc(CN4Cc5ccccc5C4)cc(=O)c3o2)CC1 [Compound 44]
41 to 100 nM	≤ 40 nM	CC(Oc1ccc(CN2Cc3ccccc3C2)c2cccnc12)C1CCN(S(C)(=O)=O)CC1 (stereo not shown) [Compound 11]
≤ 40 nM	≤ 40 nM	O=c1cc(CN2Cc3ccccc3C2)oc2cc(C3C4CC(O)CC43)oc12 (stereo not shown) [Compound 39]
≤ 40 nM	≤ 40 nM	CCOC(=O)N1CCC(c2cnc3cc(CN4Cc5ccccc5C4)ccc3n2)CC1 [Compound 111]
≤ 40 nM	≤ 40 nM	CS(=O)(=O)N1CCC(c2ccc3nc(CN4Cc5ccccc5C4)ccc3n2)CC1 [Compound 79]
41 to 100 nM	≤ 40 nM	O=c1cc(CN2Cc3ccccc3C2)oc2cc(C3CCC(O)C3)oc12 (stereo not shown) [Compound 35]
≥ 101 nM	40 to 100 nM	O=C(c1ncc[nH]1)N1CCC(c2cnc3cc(CN4Cc5ccccc5C4)ccc3n2)CC1 [Compound 107]
≤ 40 nM	≤ 40 nM	CS(=O)(=O)N1CCC(c2ccc3nc(CN4Cc5ccccc5C4)cc(=O)n3c2)CC1 [Compound 59]

The next lines start with the compound.

Structure (SMILES)	IC50 [1]	IC50 (CYP11A1)
CNC(=O)N1CCC(c2cnc3cc(CN4Cc5ccccc5C4)ccc3n2)CC1 [Compound 115]	≤ 40 nM	≤ 40 nM
CS(=O)(=O)N1CCC(c2ccc3cc(CN4Cc5ccccc5C4)ccc3c2)CC1 [Compound 66]	≤ 40 nM	≤ 40 nM
CC(C)(C)NC(=O)N1CCC(c2cnc3cc(CN4Cc5ccccc5C4)ccc3n2)CC1 [Compound 119]	41 to 100 nM	≤ 40 nM
Cc1nc(C2CCN(S(C)(=O)=O)CC2)nc2ccc(CN3Cc4ccccc4C3)cc12 [Compound 83]	≤ 40 nM	≤ 40 nM
CS(=O)(=O)N1CCC(c2ccc3cc(CN4Cc5ccccc5C4)cnc3c2)CC1 [Compound 67]	≤ 40 nM	≤ 40 nM
CS(=O)(=O)N1CCC(c2ccc3cc(CN4Cc5ccccc5C4)ccc3n2)CC1 [Compound 71]	≤ 40 nM	≤ 40 nM
O=S(=O)(c1ccccc1)N1CCC(c2cnc3cc(CN4Cc5ccccc5C4)ccc3n2)CC1 [Compound 98]	≤ 40 nM	≤ 40 nM
CC(C)(C)OC(=O)N1CCC(c2cnc3cc(CN4Cc5ccccc5C4)ccc3n2)CC1 [Compound 113]	41 to 100 nM	40 to 100 nM
CN(C)S(=O)(=O)N1CCC(c2cnc3cc(CN4Cc5ccccc5C4)ccc3n2)CC1 [Compound 99]	41 to 100 nM	40 to 100 nM
Cc1oc(CN2Cc3ccccc3C2)cc(=O)c1OCC1CCN(S(C)(=O)=O)CC1 [Compound 6]	41 to 100 nM	≤ 40 nM
O[C@H]1CC[C@H](c2nc3cc(CN4Cc5ccccc5C4)ccc3o2)CC1 [Compound 127]	≤ 40 nM	≤ 40 nM
CS(=O)(=O)N1CCC(c2ccc3oc(CN4Cc5ccccc5C4)cc(=O)c3c2)CC1 [Compound 57]	≤ 40 nM	≤ 40 nM
O=C(NCC(F)(F)F)N1CCC(c2cnc3cc(CN4Cc5ccccc5C4)ccc3n2)CC1 [Compound 120]	41 to 100 nM	≤ 40 nM
CNS(=O)(=O)N1CCC(c2cnc3cc(CN4Cc5ccccc5C4)ccc3n2)CC1 [Compound 100]	≤ 40 nM	≤ 40 nM
CS(=O)(=O)N1CCC(c2ccc3oc(CN4Cc5ccccc5C4)cc(=O)c3n2)CC1 [Compound 58]	≤ 40 nM	≤ 40 nM
O=S(=O)(N1CCC(c2cnc3cc(CN4Cc5ccccc5C4)ccc3n2)CC1)C(F)(F)F [Compound 97]	≥ 101 nM	40 to 100 nM
CS(=O)(=O)N1CCC(c2ncc3cc(CN4Cc5ccccc5C4)ccc3n2)CC1 [Compound 82]	41 to 100 nM	≤ 40 nM
O=C(c1ncccn1)N1CCC(c2cnc3cc(CN4Cc5ccccc5C4)ccc3n2)CC1 [Compound 105]	≥ 101 nM	40 to 100 nM
CP(C)(=O)c1ccc(-c2cc3oc(CN4Cc5ccccc5C4)cc(=O)c3o2)cc1 [Compound 50]	≥ 101 nM	≥ 100 nM
COc1nc(C2CCN(S(C)(=O)=O)CC2)nc2ccc(CN3Cc4ccccc4C3)cc12 [Compound 85]	≤ 40 nM	≤ 40 nM
O=C(C1CC1)N1CCC(c2cnc3cc(CN4Cc5ccccc5C4)ccc3n2)CC1 [Compound 102]	41 to 100 nM	40 to 100 nM
CS(=O)(=O)N1CCC(c2cc(Cl)c3cc(CN4Cc5ccccc5C4)ccc3n2)CC1 [Compound 77]	≤ 40 nM	≤ 40 nM
CS(=O)(=O)Nc1ccc(-c2cc3oc(CN4Cc5ccccc5C4)cc(=O)c3o2)cc1 [Compound 52]	≤ 40 nM	≤ 40 nM
CS(=O)(=O)N1CCC(c2cc(=O)n3cc(CN4Cc5ccccc5C4)ccc3n2)CC1 [Compound 62]	≥ 101 nM	40 to 100 nM
